Experimental data published in patent US11186576B2, “Pyrazolo[1,5-A][1,3,5]triazine and pyrazolo[1,5-A]pyrimidine derivatives as CDK inhibitors” (Aurigene Discovery Technologies Limited, priority 2015, dated 2021).

What was measured:
CDK7/CycH/MNAT1 = CDK7/CycH/MNAT1 (Homo sapiens (Human), UniProt P50613); experiment: Biochemical assay for CDK7 (TR-FRET kinase assay); details: 60 min pre-incubation, 1 mM ATP; for inhibition at 10 µM: 10 μM compound, read-out: % inhibition @ 10 μM; for IC50: read-out: IC50
Chain of CDK7/CycH/MNAT1 (P50613 whole entry): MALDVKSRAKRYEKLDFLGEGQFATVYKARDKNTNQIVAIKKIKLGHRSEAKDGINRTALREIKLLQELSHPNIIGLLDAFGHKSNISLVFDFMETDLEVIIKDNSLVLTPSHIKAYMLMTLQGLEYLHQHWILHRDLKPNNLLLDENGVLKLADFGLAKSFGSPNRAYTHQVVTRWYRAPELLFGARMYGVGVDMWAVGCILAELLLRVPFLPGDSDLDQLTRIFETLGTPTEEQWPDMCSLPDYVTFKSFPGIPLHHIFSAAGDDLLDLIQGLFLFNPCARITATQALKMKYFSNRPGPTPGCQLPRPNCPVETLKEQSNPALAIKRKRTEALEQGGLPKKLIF
Chain of CDK7/CycH/MNAT1 (P51946 whole entry partner): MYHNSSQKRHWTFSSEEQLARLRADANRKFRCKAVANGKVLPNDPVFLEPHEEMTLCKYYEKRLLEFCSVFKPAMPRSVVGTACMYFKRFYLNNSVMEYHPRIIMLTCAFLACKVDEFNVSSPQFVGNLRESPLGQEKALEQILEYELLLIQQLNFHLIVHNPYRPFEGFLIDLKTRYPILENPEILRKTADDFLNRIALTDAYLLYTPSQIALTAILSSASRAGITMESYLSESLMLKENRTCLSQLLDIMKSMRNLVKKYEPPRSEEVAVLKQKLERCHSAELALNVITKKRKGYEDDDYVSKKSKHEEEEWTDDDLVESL
Chain of CDK7/CycH/MNAT1 (P51948 whole entry partner): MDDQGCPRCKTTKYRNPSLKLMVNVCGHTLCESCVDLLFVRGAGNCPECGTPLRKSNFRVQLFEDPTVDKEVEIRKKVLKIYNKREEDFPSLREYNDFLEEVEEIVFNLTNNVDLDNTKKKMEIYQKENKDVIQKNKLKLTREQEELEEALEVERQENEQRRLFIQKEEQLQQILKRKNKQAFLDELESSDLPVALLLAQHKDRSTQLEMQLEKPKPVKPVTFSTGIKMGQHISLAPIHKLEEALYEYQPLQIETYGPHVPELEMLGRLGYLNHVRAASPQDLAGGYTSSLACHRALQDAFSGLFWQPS
In short: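 CDK7/CycH/MNAT1 (5 nM) was preincubated with compound for 60 min at room temperature, then reacted for 60 min with 100 nM ULight-MBP and 1 mM ATP in 1% DMSO. Irreversibility was probed with 20, 60 and 180 min preincubations.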

[1] = test system: RNA polymerase II CTD phosphorylation (MDA-MB-231/NCI-H358 cells); experiment: Inhibition of RNA polymerase II CTD phosphorylation in cell western assay; type: cell-based; details: 4 hours incubation, phospho RNA Pol II Ser-5 or Ser-2
In short: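 MDA-MB-231 or NCI-H358 cells treated 4 h at 37 °C with 3-fold dilutions from 10 μM, then fixed and immunostained for phospho-Ser5 or phospho-Ser2 RNA Pol II CTD. Europium-labelled secondaries give the time-resolved fluorescence read-out, normalised to Hoechst; EC50 reported in binned ranges.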

Row | inhibition at 10 µM (CDK7/CycH/MNAT1) | IC50 (CDK7/CycH/MNAT1) | EC50 [1] | Structure (SMILES)
1 | 86% | < 300 nM | ≤ 1000 nM | C=CC(=O)Nc1ccc(C(=O)Nc2cccc(Nc3nc(OC4CCN(C)CC4)nc4c(C(C)C)cnn34)c2)cc1 [Compound 125, 4-acrylamido-N-(3-((8-isopropyl-2-((1-methylpiperidin-4-yl)oxy)pyrazolo[1,5-a][1,3,5]triazin-4-yl)amino)phenyl)benzamide]
2 | 93% | < 300 nM | 1000 to 10000 nM | C=CC(=O)N1CCC(NC(=O)c2cccc(Nc3nc(OC4CCN(C)CC4)nc4c(C(C)C)cnn34)c2)CC1 [Compound 128, N-(1-acryloylpiperidin-4-yl)-3-((8-isopropyl-2-((1-methylpiperidin-4-yl)oxy)pyrazolo[1,5-a][1,3,5]triazin-4-yl)amino)benzamide]
3 | 94% | < 300 nM | 1000 to 10000 nM | C=CC(=O)N1CCCC(NC(=O)c2cccc(Nc3nc(OC4CCN(C)CC4)nc4c(C(C)C)cnn34)c2)C1 (stereo not drawn) [Compound 129, N-(1-acryloylpiperidin-3-yl)-3-((8-isopropyl-2-((1-methylpiperidin-4-yl)oxy)pyrazolo[1,5-a][1,3,5]triazin-4-yl)amino)benzamide]
4 | 90% | < 300 nM | > 10000 nM | CC(C)c1cnn2c(Nc3cccc(NC(=O)[C@H]4CC[C@H](NC(=O)/C=C/CN(C)C)CC4)c3)nc(OC3CCN(C)CC3)nc12 [Compound 132, (1,4-Trans)-4-((E)-4-(dimethylamino)but-2-enamido)-N-(3-((8-isopropyl-2-((1-methylpiperidin-4-yl)oxy)pyrazolo[1,5-a][1,3,5]triazin-4-yl)amino)phenyl)cyclohexane-1-carboxamide]
5 | 97% | < 300 nM | 1000 to 10000 nM | CC(C)c1cnn2c(Nc3cccc(C(=O)NC4CCN(C(=O)/C=C/CN(C)C)CC4)c3)nc(OC3CCN(C)CC3)nc12 [Compound 134, (E)-N-(1-(4-(dimethylamino)but-2-enoyl)piperidin-4-yl)-3-((8-isopropyl-2-((1-methylpiperidin-4-yl)oxy)pyrazolo[1,5-a][1,3,5]triazin-4-yl)amino)benzamide]

Row | Structure (SMILES) | inhibition at 10 µM (CDK7/CycH/MNAT1) | IC50 (CDK7/CycH/MNAT1) | EC50 [1]
6 | CC(C)c1cnn2c(Nc3cccc(NC(=O)C4CCC(NC(=O)/C=C/CN(C)C)CC4)c3)nc(OC3CCN(C)CC3)nc12 (stereo not drawn) [Compound 131, (1s,4s)-4-((E)-4-(dimethylamino)but-2-enamido)-N-(3-((8-isopropyl-2-((1-methylpiperidin-4-yl)oxy)pyrazolo[1,5-a][1,3,5]triazin-4-yl)amino)phenyl)cyclohexane-1-carboxamide] | 86% | 300 to 1000 nM | > 10000 nM
